Test results reported in patent US6495673B1, “Method for isolating the DNA encoding an enzyme” (Medical Research Council, priority 1996, dated 2002).
No end group written: not given here. *: point of attachment. Biotin = O=C1N[C@H]2[C@H](CS[C@H]2CCCCC(=O)*)N1

Assays:
[1] = target: T1, calmodulin-tagged phage DN323 (Homo sapiens, UniProt P0DP23); test: Stability of (calmodulin-tagged phage)/peptide complex to PEG precipitation, ELISA; type: binding; settings: 20% PEG 6000 + 2.5M NaCl, 1 hour on ice
T1 construct: made in house; host or cells: E. coli (phage production)
Description: Stability of (calmodulin-tagged phage)/peptide complexes to PEG precipitation was checked as follows. A 10^−8M solution (final concentration) of a biotinylated calmodulin-binding peptide […] was added to 1 ml of calmodulin-tagged phage (10^12 transforming unit/ml) in TBSC and incubated for 10 minutes. To this solution, 20% polyethyleneglycol (Mw6000) +2.5M NaCl was added (200 μl ) and the resulting mixture was incubated on ice for 1 hour, then centrifuged on a bench centrifuge (13,000 rpm; 5 minutes).
The pellet was resuspended in 1 ml of TBSC. The titre of the phage solutions before and after PEG precipitation were then determined. The fraction of phage particles that were still peptide-bound after the PEG precipitation procedure was evaluated by ELISA, using a streptavidin-coated plate (see above).
The difference in ELISA binding activity between the sample before (1) and after (2) PEG precipitation corresponds to a small loss in phage titre, as determined by E. coli infection and titration. In sample 3, 2% milk in TBSC was used instead of phage.

calmodulin = calmodulin (Homo sapiens, UniProt P0DP23); settings: cited from earlier work
[2] = target: T1, calmodulin-tagged phage DN323; test: Competition assay of (calmodulin-tagged phage)/(biotin-peptide) complex with 1000-fold excess unlabeled peptide, ELISA; type: binding; settings: 1000-fold molar excess of non-biotinylated peptide
Description: A 10^−8 M solution of a biotinylated calmodulin-binding peptide ([…] or […]; Montigiani et al., 1996) was added to calmodulin-tagged phage preparations (10^12 transforming units/ml) in TBSC and incubated for 10 minutes. To the resulting mixture, aliquoted in different tubes, unlabeled […] peptide in 1000-fold molar excess (10^−5 M) was added at different times. The fraction of phage particles in which the biotinylated peptide had been replaced by the unlabeled peptide was then determined by ELISA as described above.
The results of a competition assay of (calmodulin-tagged phage DN323)/(biotin-peptide) complex with a 1000-fold molar excess of non-biotinylated calmodulin-binding peptide, detected by ELISA are illustrated in FIG. 5. Squares: […]; circles, CAAARAXKNFIAVSAANRFKKIS.

[3] = test system: LUCK+ peptide substrate / GST-SH2 fusion; test: Selection of lck tyrosine kinase phage by capture of phosphorylated peptide on GST-SH2; type: biochemical, murine; settings: LUCK- peptide instead of LUCK+, all three phages
Description: As affinity capture reagent a GST-fusion of the N-terminal SH2 domain of PI 3-kinase was used, subcloned in pGEX vector (Pharmacia) and affinity-purified on glutathione agarose. The GST-SH2 fusion was coated on Nunc Immunotubes (4 ml; 100 μg/ml in PBS) at room temperature overnight. The tubes were then washed and incubated for 2 hours with 3% BSA in phosphorylation buffer (30 mM HEPES, pH 7.4, 150 mM NaCl, 12 mM MgCl2, 1 mM sodium vanadate, 1 mM CaCl2).
ATP was then added to a final concentration of 100 μM. After one minute, the mixtures were loaded onto separate GST-SH2-coated immunotubes and incubated for 30 minutes. The tubes were then washed 10 times with TBS +1 mM CaCl2 (TBSC) +0.1% Tween-20 and 10 times with TBSC. The phage bound to the tube via the phosphorylated peptide was specifically eluted with 1 ml 10 mM EGTA in PBS (Neri et al., 1995) that causes dissociation of the peptide ligand from calmodulin present in the fusion protein presented on the phage.
The eluted phage was used to infect exponentially growing TG1 E. coli cells according to standard procedures (Nissim et al., 1994), then plated on selective ampicillin-glucose-TY plates. Ampicillin-resistant transformants were counted and used to calculate the titre of the phage recovered in the selection procedure.

Biotin-CAAARWKKAFIAVSAANRFKKIS
stability of calmodulin/peptide complex upon PEG precipitation [1]: stable even after PEG precipitation

CAAARWKKAFIAVSAANRFKKIS
Kd (calmodulin): 2.2 pM | koff [2]: < 10^−1 s^−1 | time for which complex with calmodulin-tagged phage is stable [2]: more than 2 hours

EPQFEEIGAARWKKAFIAVSNMFKKIS [LUCK-]
phage titres recovered [3]: low phage titres
